Assay results reported in US9346815B2, “5-chloro-2-difluoromethoxyphenyl pyrazolopyrimidine compounds, compositions and methods of use thereof” (Genentech, Inc., priority 2014, dated 2016).

Columns and labels:
[1] = biological target: isolated recombinant JAK2 kinase domain (Homo sapiens (Human), UniProt O60674); experiment: JAK2 enzyme assay (Caliper LabChip, peptide phosphorylation); format: biochemical; conditions: 25 μM ATP
[2] = tested on: JAK1-dependent STAT6 phosphorylation downstream of IL-13 stimulation in TF-1 human erythroleukemia cells; experiment: JAK1 pathway assay in TF-1 cells (IL-13-pSTAT6, MSD); format: cell-based; conditions: Homo sapiens, TF-1, TF-1 cells, read-out: IL13-pSTAT6 EC50_TF-1
Outline: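 BEAS-2B: 1 h, complete growth medium, 100,000 cells/well. TF-1: 30 min, serum-free OptiMEM after overnight GM-CSF starvation, 300,000 cells/well. EC50 reported.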

[3] = biological target: isolated recombinant JAK1 kinase domain (Homo sapiens (Human), UniProt P23458); experiment: JAK1 enzyme assay (Caliper LabChip, peptide phosphorylation); format: biochemical; conditions: isolated recombinant JAK1 kinase domain, 25 μM ATP
Chain of isolated recombinant JAK1 kinase domain (P23458 875-1153): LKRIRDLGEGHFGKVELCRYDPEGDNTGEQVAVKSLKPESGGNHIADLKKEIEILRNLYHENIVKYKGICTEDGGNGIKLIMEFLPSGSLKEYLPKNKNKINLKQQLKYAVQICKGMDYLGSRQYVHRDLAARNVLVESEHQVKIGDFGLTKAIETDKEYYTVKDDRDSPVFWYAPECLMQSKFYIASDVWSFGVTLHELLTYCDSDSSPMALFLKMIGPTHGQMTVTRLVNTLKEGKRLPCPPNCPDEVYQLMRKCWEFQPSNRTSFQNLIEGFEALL

Chain of isolated recombinant JAK2 kinase domain (O60674 849-1124): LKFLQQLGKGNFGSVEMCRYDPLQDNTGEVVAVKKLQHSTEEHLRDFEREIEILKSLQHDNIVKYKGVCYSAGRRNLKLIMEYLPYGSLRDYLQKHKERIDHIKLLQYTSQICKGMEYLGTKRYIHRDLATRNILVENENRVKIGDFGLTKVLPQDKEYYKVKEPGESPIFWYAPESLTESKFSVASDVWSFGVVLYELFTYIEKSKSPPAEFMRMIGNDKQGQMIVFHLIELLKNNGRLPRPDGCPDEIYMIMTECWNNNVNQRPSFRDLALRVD

Row | SMILES | Ki [1] [nM] | EC50 [2] [nM] | Ki [3] [nM]
1 | CN1CCC2(C1)CN(C(=O)Cn1cc(NC(=O)c3cnn4cccnc34)c(-c3cc(Cl)ccc3OC(F)F)n1)C2 [Example 211, Pyrazolo[1,5-a]pyrimidine-3-carboxylic acid {3-(5-chloro-2-difluoromethoxyphenyl)-1-[2-(6-methyl-2,6-diazaspiro[3.4]oct-2-yl)-2-oxoethyl]-1H-pyrazol-4-yl}amide] | 1.38 | 20.9 | 1.1
2 | O=C(Nc1cn(CC(=O)N2C[C@@H]3CN(C(=O)OCCCO)C[C@@H]3C2)nc1-c1cc(Cl)ccc1OC(F)F)c1cnn2cccnc12 [Example 15, 3-hydroxypropyl (3aR,6aS)-2-[2-[3-[5-chloro-2-(difluoromethoxy)phenyl]-4-(pyrazolo[1,5-a]pyrimidine-3-carbonylamino)pyrazol-1-yl]acetyl]-1,3,3a,4,6,6a-hexahydropyrrolo[3,4-c]pyrrole-5-carboxylate] | 0.93 | 334 | 0.53
3 | O=C(Nc1cn(CC(=O)N2CCC(N3Cc4ccc(Cl)cc4C3)CC2)nc1-c1cc(Cl)ccc1OC(F)F)c1cnn2cccnc12 [Example 135, N-[3-[5-chloro-2-(difluoromethoxy)phenyl]-1-[2-[4-(5-chloroisoindolin-2-yl)-1-piperidyl]-2-oxo-ethyl]pyrazol-4-yl]pyrazolo[1,5-a]pyrimidine-3-carboxamide] | 1.15 | 26.9 | 0.52
4 | CN1C[C@@H]2CN(Cc3nc(-c4cc(Cl)ccc4OC(F)F)c(NC(=O)c4cnn5cccnc45)s3)C[C@@H]2C1 [Example 262, N-[2-[[(3aR,6aS)-2-methyl-1,3,3a,4,6,6a-hexahydropyrrolo[3,4-c]pyrrol-5-yl]methyl]-4-[5-chloro-2-(difluoromethoxy)phenyl]thiazol-5-yl]pyrazolo[1,5-a]pyrimidine-3-carboxamide] | 1.73 | 62.7 | 5.84
5 | O=C(Nc1cn(C2CCN(CCCC(=O)N3CCOCC3)CC2)nc1-c1cc(Cl)ccc1OC(F)F)c1cnn2cccnc12 [Example 169, N-[3-[5-chloro-2-(difluoromethoxy)phenyl]-1-[1-(4-morpholino-4-oxo-butyl)-4-piperidyl]pyrazol-4-yl]pyrazolo[1,5-a]pyrimidine-3-carboxamide] | 0.22 | 6.8 | 1.16
6 | CN1CC[C@H]2CN(C(=O)Cn3cc(NC(=O)c4cnn5cccnc45)c(-c4cc(Cl)ccc4OC(F)F)n3)CC[C@H]21 [Example 42, N-[1-[2-[(3aS,7aR)-1-methyl-3,3a,4,6,7,7a-hexahydro-2H-pyrrolo[3,2-c]pyridin-5-yl]-2-oxo-ethyl]-3-[5-chloro-2-(difluoromethoxy)phenyl]pyrazol-4-yl]pyrazolo[1,5-a]pyrimidine-3-carboxamide] | 0.67 | 3.1 | 0.69
7 | CN(C)CC1CCN(C(=O)Cn2cc(NC(=O)c3cnn4cccnc34)c(-c3cc(Cl)ccc3OC(F)F)n2)CC1 [Example 70, N-[3-[5-chloro-2-(difluoromethoxy)phenyl]-1-[2-[4-[(dimethylamino)methyl]-1-piperidyl]-2-oxo-ethyl]pyrazol-4-yl]pyrazolo[1,5-a]pyrimidine-3-carboxamide] | 2.38 | 16.1 | 0.67
8 | CCN1CC2CN(C(=O)Cn3cc(NC(=O)c4c(N)nn5cccnc45)c(-c4cc(Cl)ccc4OC(F)F)n3)CC2C1 (stereo not drawn) [Example 11, 2-amino-N-[3-[5-chloro-2-(difluoromethoxy)phenyl]-1-[2-(2-ethyl-1,3,3a,4,6,6a-hexahydropyrrolo[3,4-c]pyrrol-5-yl)-2-oxo-ethyl]pyrazol-4-yl]pyrazolo[1,5-a]pyrimidine-3-carboxamide] | 0.3 | 11.8 | 1.05
9 | CN(CCOc1ccccc1Cl)C1CCN(C(=O)Cn2cc(NC(=O)c3cnn4cccnc34)c(-c3cc(Cl)ccc3OC(F)F)n2)CC1 [Example 106, N-[3-[5-chloro-2-(difluoromethoxy)phenyl]-1-[2-[4-[2-(2-chlorophenoxy)ethyl-methyl-amino]-1-piperidyl]-2-oxo-ethyl]pyrazol-4-yl]pyrazolo[1,5-a]pyrimidine-3-carboxamide] | 2.29 | 15.5 | 1.09
10 | O=C(Nc1cn(CC(=O)N2C[C@H]3CN(CCCN4CCCC4=O)C[C@H]3C2)nc1-c1cc(Cl)ccc1OC(F)F)c1cnn2cccnc12 [Example 18, N-[1-[2-[(3aR,6aS)-2-[3-(2-oxopyrrolidin-1-yl)propyl]-1,3,3a,4,6,6a-hexahydropyrrolo[3,4-c]pyrrol-5-yl]-2-oxo-ethyl]-3-[5-chloro-2-(difluoromethoxy)phenyl]pyrazol-4-yl]pyrazolo[1,5-a]pyrimidine-3-carboxamide] | 0.56 | 274 | 0.56
11 | CN(CCc1ccccc1)C1CCN(c2nc(-c3cc(Cl)ccc3OC(F)F)c(NC(=O)c3cnn4cccnc34)s2)CC1 [Example 192, N-[4-[5-chloro-2-(difluoromethoxy)phenyl]-2-[4-[methyl(2-phenylethyl)amino]-1-piperidyl]thiazol-5-yl]pyrazolo[1,5-a]pyrimidine-3-carboxamide] | 3.72 | 272 | 5
12 | CS(=O)(=O)CCN1C[C@@H]2CN(C(=O)Cn3cc(NC(=O)c4cnn5cccnc45)c(-c4cc(Cl)ccc4OC(F)F)n3)C[C@@H]2C1 [Example 31, N-[1-[2-[(3aS,6aR)-2-(2-methylsulfonylethyl)-1,3,3a,4,6,6a-hexahydropyrrolo[3,4-c]pyrrol-5-yl]-2-oxo-ethyl]-3-[5-chloro-2-(difluoromethoxy)phenyl]pyrazol-4-yl]pyrazolo[1,5-a]pyrimidine-3-carboxamide] | 0.53 | 102 | 0.37
13 | O=C(Nc1cn(CC(=O)N2C[C@H]3CN(CCCN4C(=O)Cc5ccccc54)C[C@H]3C2)nc1-c1cc(Cl)ccc1OC(F)F)c1cnn2cccnc12 [Example 54, N-[1-[2-[(3aR,6aS)-2-[3-(2-oxoindolin-1-yl)propyl]-1,3,3a,4,6,6a-hexahydropyrrolo[3,4-c]pyrrol-5-yl]-2-oxo-ethyl]-3-[5-chloro-2-(difluoromethoxy)phenyl]pyrazol-4-yl]pyrazolo[1,5-a]pyrimidine-3-carboxamide] | 0.67 | 15.1 | 0.76
14 | O=C(Nc1sc(N2CCN(CC3CC3)CC2)nc1-c1cc(Cl)ccc1OC(F)F)c1cnn2cccnc12 [Example 207, N-[4-[5-chloro-2-(difluoromethoxy)phenyl]-2-[4-(cyclopropylmethyl)piperazin-1-yl]thiazol-5-yl]pyrazolo[1,5-a]pyrimidine-3-carboxamide] | 0.69 | 23.6 | 1.01
15 | CN(C)C1CCN(C(=O)Cn2cc(NC(=O)c3cnn4cccnc34)c(-c3cc(Cl)ccc3OC(F)F)n2)C1 (stereo not drawn) [Example 65, N-[3-[5-chloro-2-(difluoromethoxy)phenyl]-1-[2-[3-(dimethylamino)pyrrolidin-1-yl]-2-oxo-ethyl]pyrazol-4-yl]pyrazolo[1,5-a]pyrimidine-3-carboxamide] | 0.69 | 9.4 | 0.54
16 | O=C(Nc1cn(CC(=O)N2C[C@H]3CN(CCCN4CCOCC4)C[C@H]3C2)nc1-c1cc(Cl)ccc1OC(F)F)c1cnn2cccnc12 [Example 19, N-[1-[2-[(3aR,6aS)-2-(3-morpholinopropyl)-1,3,3a,4,6,6a-hexahydropyrrolo[3,4-c]pyrrol-5-yl]-2-oxo-ethyl]-3-[5-chloro-2-(difluoromethoxy)phenyl]pyrazol-4-yl]pyrazolo[1,5-a]pyrimidine-3-carboxamide] | 0.71 | 379 | 0.72
17 | CNC(=O)CN1CCC(n2cc(NC(=O)c3cnn4cccnc34)c(-c3cc(Cl)ccc3OC(F)F)n2)CC1 [Example 157, N-[3-[5-chloro-2-(difluoromethoxy)phenyl]-1-[1-[2-(methylamino)-2-oxo-ethyl]-4-piperidyl]pyrazol-4-yl]pyrazolo[1,5-a]pyrimidine-3-carboxamide] | 0.75 | 9.2 | 1.32
18 | Nc1nn2cccnc2c1C(=O)Nc1cn(CC(=O)N2CCC(CO)CC2)nc1-c1cc(Cl)ccc1OC(F)F [Example 266, 2-amino-N-[3-[5-chloro-2-(difluoromethoxy)phenyl]-1-[2-[4-(hydroxymethyl)-1-piperidyl]-2-oxo-ethyl]pyrazol-4-yl]pyrazolo[1,5-a]pyrimidine-3-carboxamide] | 0.1 | 5.9 | 0.24
19 | CN(C)C1CCN(C(=O)Cn2cc(NC(=O)c3c(N)nn4cccnc34)c(-c3cc(Cl)ccc3OC(F)F)n2)CC1 [Example 139, 2-amino-N-[3-[5-chloro-2-(difluoromethoxy)phenyl]-1-[2-[4-(dimethylamino)-1-piperidyl]-2-oxo-ethyl]pyrazol-4-yl]pyrazolo[1,5-a]pyrimidine-3-carboxamide] | 0.36 | 40.2 | 0.78
20 | CN(CC1Oc2ccccc2O1)C1CCN(C(=O)Cn2cc(NC(=O)c3cnn4cccnc34)c(-c3cc(Cl)ccc3OC(F)F)n2)CC1 [Example 112, N-[1-[2-[4-[1,3-benzodioxol-2-ylmethyl(methyl)amino]-1-piperidyl]-2-oxo-ethyl]-3-[5-chloro-2-(difluoromethoxy)phenyl]pyrazol-4-yl]pyrazolo[1,5-a]pyrimidine-3-carboxamide] | 1.01 | 96.3 | 0.45
21 | CN(C)C[C@@H]1CCCN(C(=O)Cn2cc(NC(=O)c3cnn4cccnc34)c(-c3cc(Cl)ccc3OC(F)F)n2)C1 [Example 72, N-[3-[5-chloro-2-(difluoromethoxy)phenyl]-1-[2-[(3S)-3-[(dimethylamino)methyl]-1-piperidyl]-2-oxo-ethyl]pyrazol-4-yl]pyrazolo[1,5-a]pyrimidine-3-carboxamide] | 4.07 | 7.2 | 1.17
